The structures appear in SMILES notation.

This passage reports fluorescence fold increase results from paper PMC4005661 (2014).

For this assay, the system named is c-myc (DNA, G4) TGAGGGTGGGTAGGGTGGGTAA
Briefly: fluorescence light-up, plate reader. The following applies: 50 mM K+ (KCl); 50 mM Tris/HCl pH 7.5, room temperature; 1 µM strand, 0.5 µM ThT.

As for `Cc1ccc2c(c1)sc(-c1ccc(N(C)C)cc1)[n+]2C`, the fluorescence fold increase is reported as 14 fold.
